Results on 3 substances are retold here after PMC11341654 (2024).

Series [1] can be described thus: UV irradiation in solution. Conditions: cited from earlier work.
Series [2] in a line: protonated peptides irradiated in the gas phase; VUV or soft X-ray photon, carbon ions. Conditions: cited from earlier work.
A short description of series [3]: deprotonated peptide anions in the gas phase, UV photoabsorption at 220 nm (ion trap). Conditions: up to 100–500 ms.
Series [4] is described as follows: gas phase; photoabsorption in the VUV as well as X-ray photon energy range (30 to 545 eV). To be noted: cited from earlier work.
Series [5] in a line: isolated peptide ions in the gas phase (ion trap), UV photoabsorption at 220 nm. To be noted: up to 100–500 ms.

For the substance (POG)10, the cleaved bond result in series [1] is recorded as “Gly-Pro, major”; in series [2] it was “Gly-Pro, major”.

Take (PPG)10: the cleaved bond result in series [1] is reported as “Gly-Pro, major”; in series [2], “Gly-Pro, major”.

As to PGGPPGPKGNSGEPGAPGSKGDTGAK, the cleaved bond entry is “G-P and P-P and E-P and A-P” in series [3]; “Gly-Pro, major” in series [4]; “Gly-Pro, major and Pro-Pro and Glu-Pro and Ala-Pro and Asp-Thr and K-G” in series [5].
